From patent publication US20250207175A1, “METHOD FOR DETECTING CONTAMINATING CARBOXYLESTERASE ACTIVITY” (Boehringer Ingelheim International GmbH, priority 2022, published 2025)

Columns and labels:
[1] = Solubility of OPTS in H2O (stock solutions, verified by light scattering); format: physicochemical; conditions: water, aqueous stock solution
Method: Stock solutions of the fluorogenic substrate in water were prepared. Aqueous solutions with an OPTS concentration ≥2.0 mM could be prepared. The solubility could be verified by light scattering experiments.

[2] = format: physicochemical
Source text: In order to be able to determine the enzymatic activity, a substrate, 1-octanoyloxy-pyrene-3,6,8-trisulfonic acid trisodium salt (OPTS), was chosen. Its hydrolytic product, 1-hydroxypyrene-3,6,8-trisulfonic acid trisodium salt (HPTS), can be detected by fluorescence spectroscopy. The change in the fluorescence signal over time is directly related to the change in the concentration of free fluorophore. The conversion was made possible by setting up a calibration curve with a subsequent linear fit (R^2≥0.99). The experiments of the kinetics measurements with the OPTS/4-MUD substrates assay were performed in duplicates. The reaction mixture without the protein of interest, which served as the respective control, was subtracted from the protein-containing batch. The buffer used for OPTS measurements (hydrophilic substrate) contained 0.3 M HOAc, 0.3 M MES, 0.6 M TRIS and 0.6 M NaCl (4×AMT buffer; acetate, MES, TRIS). For 4-MUD substrate measurements (lipophilic substrate) 0.04 M CHAPS was added in addition. The buffer (AMT) was prepared in four-fold concentration (4×AMT) and was added at 25% (v/v) to the reaction mix. All measurements were carried out in multiwell plates with a preparation volume of 300 μL (75 μL 4×AMT buffer, 30 μL substrate, 75 μL enzyme-containing solution, x μL additive, 300 μL ad. H2O) Unless otherwise stated, all fluorescence spectroscopic measurements were performed using 96-well, clear-bottom, non-binding plates (Greiner, Austria) on a SpectraMax M3 PlateReader (Molecular Device, USA) and recorded using SoftMax Pro 7.0.3 software (Molecular Device, USA). The OPTS assay measurements were typically taken at 25° C., λex=403 nm and λem=512 nm and the 4-MUD assay measurements were taken at 25° C., λex=330 nm and λem=450 nm. For evaluation, the detected fluorescence signal for a reaction mix without protein of interest (control) was subtracted from the reaction mix with protein of interest (e.g. DS). Hydrolysis of the substrate has been measured by detecting the fluorescence intensity of the released chromophore (4-MU or HPTS) immediately following mixing in real-time for a few minutes up to 5 hours depending on fluorescence intensity. The changes in the fluorescence signal over time were subsequently converted to hydrolytic activity using previously established calibration curves with a linear fit (R^2≥0.99).
The fluorophore HPTS can be released from the substrate (here esterified caprylic acid) by enzymatic or chemical hydrolysis (acidic and alkaline hydrolysis). In order to assess the influence of pH on aqueous solutions of the substrate, 225 μL of a 33.3 μM OPTS solution was added to 75 μL each of AMT buffer (with pH=5.5 and pH=8) and the kinetics of fluorophore release were recorded for two hours.
There is a clear difference in the slope of the fluorescence signals for the different pH values. Based on the recorded calibration curves the autohydrolysis rate at pH 5.5 was calculated as 1.58*10^−7 units (μmol*min-1) and the autohydrolysis rate at pH 8.0 was calculated as 3.48*10^−6 units. Thus, the hydrolysis rate at pH 8 is about 22-times higher compared to pH 5.5, showing that hydrolysis of the fluorogenic substrate can be observed over time, at basic pH, but only at a very low level at pH 5.5. […]

[3] = OPTS assay of histidine-containing buffer controls; conditions: histidine concentrations of less than 200 μM; data not shown
Method: 9 different antibody (Ab1-Ab9) samples were tested using the OPTS assay. As a control, measurements were performed with the respective same buffer solution as used in the antibody sample.
Since histidine has been reported previously to mediate hydrolytic activities in aqueous solutions similar to esterases (Delort, Nguyen-Trung et al. 2006, Mason, McCracken et al. 2010, Amano, Kobayashi et al. 2014, Xu, Chen et al. 2017), samples were dialysed against 0.002% NaCl using a two-step dialysis with a molecular weight cut-off (MWCO) of 20K. For preparative dialysis, the pre-wettened dialysis cassette was filled with 2 ml antibody solution and placed in a beaker filled with 1 L NaCl (0.002% w/v) solution with gentle stirring. After one hour the 1 L NaCl solution was replaced with fresh NaCl (0.002% w/v) solution and dialysed for another two hours with gentle stirring. […] In the following the assay was performed using dialysed drug substance samples. The same solution (final solution outside the dialysis cassette) was used as control sample to be subtracted from the test sample.

lipase activity = conditions: FIG. 10 of WO 2022 049294 A1; cited from earlier work

Compound: CCCCCCCC(=O)Oc1cc(S(=O)(=O)[O-])c2ccc3c(S(=O)(=O)[O-])cc(S(=O)(=O)[O-])c4ccc1c2c43.[Na+].[Na+].[Na+] [OPTS, 1-octanoyloxy-pyrene-3,6,8-trisulfonic acid trisodium salt]
- solubility [1]: ≥ 2000 µM
- stability of OPTS in solvent (autohydrolysis) [2]: more stable in DMSO compared to H2O
- autohydrolysis rate at pH 5.5 ([2]; 25 μM OPTS, AMT buffer pH 5.5, two hours): 1.58*10^−7 units (μmol*min-1)
- autohydrolysis rate at pH 8.0 ([2]; 25 μM OPTS, AMT buffer pH 8.0, two hours): 3.48*10^−6 units
- hydrolysis rate at pH 8 compared to pH 5.5 ([2]; autohydrolysis of OPTS): about 22 times
- autohydrolysis of OPTS compared to 4-MUD ([2]; particularly at pH 8.0): more critical

Compound: N[C@@H](Cc1c[nH]cn1)C(=O)O [histidine]
- activity of histidine buffer component in the OPTS assay [3]: low 10^−7

Compound: polyethylene glycol tert-octylphenyl ether [Triton X-100]
- effect of detergent on the 4-MUD assay (lipase activity): inhibited
